Data from patent publication US20240287076A1, “COMPOUNDS FOR TARGETING DEGRADATION OF BRUTON'S TYROSINE KINASE” (BIOGEN MA INC., priority 2021, published 2024).

These compounds were tested against T1, BTK (Homo sapiens, UniProt Q06187) (assay: BTK degradation assay using the HiBiT Method (Nano-Glo HiBiT Lytic Assay, GM01501.3 cells)). Conditions: HiBiT Degradation on GM01501.3 BTK @ 6 hours.
T1 construct: The GM01501.3 cell line endogenously expresses BTK with a HiBiT fusion tag via CRISPR knock-in at its C-terminal region; endogenous in cells; host or cells: GM01501.3 (GM01501 cells engineered by CRISPR knock-in of HiBiT at the BTK locus)
T1 sequence (Q06187 whole entry, the tested form may be a part): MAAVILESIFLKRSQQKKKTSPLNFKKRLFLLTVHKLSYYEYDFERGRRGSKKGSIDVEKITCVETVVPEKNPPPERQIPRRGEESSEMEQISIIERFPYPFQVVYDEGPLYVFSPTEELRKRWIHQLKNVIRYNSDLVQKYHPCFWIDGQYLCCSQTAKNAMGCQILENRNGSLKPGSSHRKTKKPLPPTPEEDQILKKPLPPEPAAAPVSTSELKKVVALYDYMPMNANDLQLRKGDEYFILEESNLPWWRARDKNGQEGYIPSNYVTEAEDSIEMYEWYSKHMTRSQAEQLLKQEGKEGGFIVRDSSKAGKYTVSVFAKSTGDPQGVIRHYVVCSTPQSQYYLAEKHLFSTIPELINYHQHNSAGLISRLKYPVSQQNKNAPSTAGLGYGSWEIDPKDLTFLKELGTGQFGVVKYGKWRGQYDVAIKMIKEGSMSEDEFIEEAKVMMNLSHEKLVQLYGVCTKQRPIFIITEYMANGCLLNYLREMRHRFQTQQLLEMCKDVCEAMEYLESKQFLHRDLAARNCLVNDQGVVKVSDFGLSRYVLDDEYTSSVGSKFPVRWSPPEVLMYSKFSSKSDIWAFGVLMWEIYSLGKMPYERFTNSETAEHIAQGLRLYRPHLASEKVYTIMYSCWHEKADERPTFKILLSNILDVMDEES
Format: cell-based
Procedure, shortened: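 CRISPR knock-in GM01501.3 cells expressing endogenous BTK with C-terminal HiBiT tag, treated 6 h at 37 °C with compounds, 11-point half-log titration from 10 μM top, duplicates. Remaining BTK quantified by Nano-Glo HiBiT lytic luminescence versus DMSO controls; DC50 reported.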

Row | Compound | DC50 [nM]
1 | CC(C)(C)c1nc(C(=O)NCc2cc(F)c(-c3ncnn4cc(-c5ccc(CN6CCC(c7ccc(NC8CCC(=O)NC8=O)cc7)CC6)cc5)cc34)cc2Cl)no1 (stereo not drawn) [Example 49, 5-tert-butyl-N-[[2-chloro-4-[6-[4-[[4-[4-[(2,6-dioxo-3-piperidyl)amino]phenyl]-1-piperidyl]methyl]phenyl]pyrrolo[2,1-f][1,2,4]triazin-4-yl]-5-fluoro-phenyl]methyl]-1,2,4-oxadiazole-3-carboxamide] | < 100
2 | Cc1cc(-c2ncnn3cc(-c4ccc(CCN5CCC(c6ccc(NC7CCC(=O)NC7=O)cc6)CC5)cc4)cc23)ccc1CNC(=O)c1noc(C(C)(C)C)n1 (stereo not drawn) [Example 53, 5-tert-butyl-N-[[4-[6-[4-[2-[4-[4-[(2,6-dioxo-3-piperidyl)amino]phenyl]-1-piperidyl]ethyl]phenyl]pyrrolo[2,1-f][1,2,4]triazin-4-yl]-2-methyl-phenyl]methyl]-1,2,4-oxadiazole-3-carboxamide] | < 100
3 | Cc1cc(-c2ncnn3cc(-c4ccc5c(c4)CN(CCCc4ccc(NC6CCC(=O)NC6=O)cc4)C5)cc23)ccc1CNC(=O)c1noc(C(C)(C)C)n1 (stereo not drawn) [Example 57, 5-tert-butyl-N-[[4-[6-[2-[3-[4-[(2,6-dioxo-3-piperidyl)amino]phenyl]propyl]isoindolin-5-yl]pyrrolo[2,1-f][1,2,4]triazin-4-yl]-2-methyl-phenyl]methyl]-1,2,4-oxadiazole-3-carboxamide] | < 100
4 | Cc1cc(-c2ncnn3cc(-c4ccc5c(c4)CCN(CCCc4ccc(NC6CCC(=O)NC6=O)cc4)C5)cc23)ccc1CNC(=O)c1noc(C(C)(C)C)n1 (stereo not drawn) [Example 58, 5-tert-butyl-N-[[4-[6-[2-[3-[4-[(2,6-dioxo-3-piperidyl)amino]phenyl]propyl]-3,4-dihydro-1H-isoquinolin-6-yl]pyrrolo[2,1-f][1,2,4]triazin-4-yl]-2-methyl-phenyl]methyl]-1,2,4-oxadiazole-3-carboxamide] | < 100
5 | Cc1cc(-c2ncnn3cc(-c4ccc5c(c4)CN(CCCc4ccc(NC6CCC(=O)NC6=O)cc4)CC5)cc23)ccc1CNC(=O)c1noc(C(C)(C)C)n1 (stereo not drawn) [Example 59, 5-tert-butyl-N-[[4-[6-[2-[3-[4-[(2,6-dioxo-3-piperidyl)amino]phenyl]propyl]-3,4-dihydro-1H-isoquinolin-7-yl]pyrrolo[2,1-f][1,2,4]triazin-4-yl]-2-methyl-phenyl]methyl]-1,2,4-oxadiazole-3-carboxamide] | < 100
6 | Cc1cc(-c2ncnn3cc(-c4ccc5c(c4)CN(CCc4ccc(NC6CCC(=O)NC6=O)cc4)CC5)cc23)ccc1CNC(=O)c1noc(C(C)(C)C)n1 (stereo not drawn) [Example 60, 5-tert-butyl-N-[[4-[6-[2-[2-[4-[(2,6-dioxo-3-piperidyl)amino]phenyl]ethyl]-3,4-dihydro-1H-isoquinolin-7-yl]pyrrolo[2,1-f] [1,2,4]triazin-4-yl]-2-imethyl-phenyl]methyl]-1,2,4-oxadiazole-3-carboxamide] | < 100
7 | Cc1cc(-c2ncnn3cc(-c4ccc(CN5CCC(c6ccc(NC7CCC(=O)NC7=O)cc6)CC5)cc4)cc23)ccc1CNC(=O)c1ccc(C(F)F)cc1 (stereo not drawn) [Example 61, 4-(difluoromethyl)-N-[[4-[6-[4-[[4-[4-[(2,6-dioxo-3-piperidyl)amino]phenyl]-1-piperidyl]methyl]phenyl]pyrrolo[2,1-f][1,2,4]triazin-4-yl]-2-methyl-phenyl]methyl]benzamide] | < 100
8 | Cc1cc(-c2ncnn3cc(-c4ccc(CN5CCC(c6ccc(NC7CCC(=O)NC7=O)cc6)CC5)cc4)cc23)ccc1CNC(=O)c1ccc(Cl)cc1 (stereo not drawn) [Example 62, 4-chloro-N-[[4-[6-[4-[[4-[4-[(2,6-dioxo-3-piperidyl)amino]phenyl]-1-piperidyl]methyl]phenyl]pyrrolo[2,1-f][1,2,4]triazin-4-yl]-2-methyl-phenyl]methyl]benzamide] | < 100
9 | Cc1cc(-c2ncnn3cc(-c4ccc(CN5CCC(c6ccc(NC7CCC(=O)NC7=O)cc6)CC5)cc4)cc23)ccc1CNC(=O)c1ccc(C(F)(F)F)nc1 (stereo not drawn) [Example 63, N-[[4-[6-[4-[[4-[4-[(2,6-dioxo-3-piperidyl)amino]phenyl]-1-piperidyl]methyl]phenyl]pyrrolo[2,1-f][1,2,4]triazin-4-yl]-2-methyl-phenyl]methyl]-6-(trifluoromethyl)pyridine-3-carboxamide] | < 100
10 | Cc1cc(-c2ncnn3cc(-c4ccc(CN5CCC(c6ccc(NC7CCC(=O)NC7=O)cc6)CC5)cc4)cc23)ccc1CNC(=O)c1ccc(F)cc1 (stereo not drawn) [Example 64, N-[[4-[6-[4-[[4-[4-[(2,6-dioxo-3-piperidyl)amino]phenyl]-1-piperidyl]methyl]phenyl]pyrrolo[2,1-f][1,2,4]triazin-4-yl]-2-methyl-phenyl]methyl]-4-fluoro-benzamide] | < 100
11 | CCc1ccc(C(=O)NCc2ccc(-c3ncnn4cc(-c5ccc(CN6CCC(c7ccc(NC8CCC(=O)NC8=O)cc7)CC6)cc5)cc34)cc2C)cc1 (stereo not drawn) [Example 67, N-[[4-[6-[4-[[4-[4-[(2,6-dioxo-3-piperidyl)amino]phenyl]-1-piperidyl]methyl]phenyl]pyrrolo[2,1-f][1,2,4]triazin-4-yl]-2-methyl-phenyl]methyl]-4-ethyl-benzamide] | < 100
12 | Cc1ccc(C(=O)NCc2ccc(-c3ncnn4cc(-c5ccc(CN6CCC(c7ccc(NC8CCC(=O)NC8=O)cc7)CC6)cc5)cc34)cc2C)cc1 (stereo not drawn) [Example 68, N-[[4-[6-[4-[[4-[4-[(2,6-dioxo-3-piperidyl)amino]phenyl]-1-piperidyl]methyl]phenyl]pyrrolo[2,1-f][1,2,4]triazin-4-yl]-2-methyl-phenyl]methyl]-4-methyl-benzamide] | < 100

Other lines, results leading:

Row | DC50 [nM] | Compound
13 | < 100 | CC(C)(C)c1nc(C(=O)NCc2ccc(-c3ncnn4cc(-c5ccc(CN6CCC(c7ccc(NC8CCC(=O)NC8=O)cc7)CC6)cc5)cc34)cc2Cl)no1 (stereo not drawn) [Example 48, 5-tert-butyl-N-[[2-chloro-4-[6-[4-[[4-[4-[(2,6-dioxo-3-piperidyl)amino]phenyl]-1-piperidyl]methyl]phenyl]pyrrolo[2,1-f][1,2,4]triazin-4-yl]phenyl]methyl]-1,2,4-oxadiazole-3-carboxamide]
14 | < 100 | Cc1cc(-c2ncnn3cc(-c4cccc(CN5CCC(c6ccc(NC7CCC(=O)NC7=O)cc6)CC5)c4)cc23)ccc1CNC(=O)c1noc(C(C)(C)C)n1 (stereo not drawn) [Example 50, 5-tert-butyl-N-[[4-[6-[3-[[4-[4-[(2,6-dioxo-3-piperidyl)amino]phenyl]-1-piperidyl]methyl]phenyl]pyrrolo[2,1-f][1,2,4]triazin-4-yl]-2-methyl-phenyl]methyl]-1,2,4-oxadiazole-3-carboxamide]
15 | < 100 | Cc1cc(-c2ncnn3cc(-c4ccc(CCN5CCC(c6ccc(C7CCC(=O)NC7=O)cc6)C(F)(F)C5)cc4)cc23)ccc1CNC(=O)c1noc(C(C)(C)C)n1 (stereo not drawn) [Example 51, 5-tert-butyl-N-[[4-[6-[4-[2-[4-[4-(2,6-dioxo-3-piperidyl)phenyl]-3,3-difluoro-1-piperidyl]ethyl]phenyl]pyrrolo[2,1-f][1,2,4]triazin-4-yl]-2-methyl-phenyl]methyl]-1,2,4-oxadiazole-3-carboxamide]
16 | < 100 | Cc1cc(-c2ncnn3cc(-c4ccc(CCN5CCC(c6ccc(C7CCC(=O)NC7=O)cc6)CC5)cc4)cc23)ccc1CNC(=O)c1noc(C(C)(C)C)n1 (stereo not drawn) [Example 52, 5-tert-butyl-N-[[4-[6-[4-[2-[4-[4-(2,6-dioxo-3-piperidyl)phenyl]-1-piperidyl]ethyl]phenyl]pyrrolo[2,1-f][1,2,4]triazin-4-yl]-2-methyl-phenyl]methyl]-1,2,4-oxadiazole-3-carboxamide]
17 | < 100 | Cc1cc(-c2ncnn3cc(-c4cccc(CCN5CCC(c6ccc(NC7CCC(=O)NC7=O)cc6)CC5)c4)cc23)ccc1CNC(=O)c1noc(C(C)(C)C)n1 (stereo not drawn) [Example 54, 5-tert-butyl-N-[[4-[6-[3-[2-[4-[4-[(2,6-dioxo-3-piperidyl)amino]phenyl]-1-piperidyl]ethyl]phenyl]pyrrolo[2,1-f][1,2,4]triazin-4-yl]-2-methyl-phenyl]methyl]-1,2,4-oxadiazole-3-carboxamide]
18 | < 100 | Cc1cc(-c2ncnn3cc(-c4ccc5c(c4)CN(CCc4ccc(NC6CCC(=O)NC6=O)cc4)C5)cc23)ccc1CNC(=O)c1noc(C(C)(C)C)n1 (stereo not drawn) [Example 55, 5-tert-butyl-N-[[4-[6-[2-[2-[4-[(2,6-dioxo-3-piperidyl)amino]phenyl]ethyl]isoindolin-5-yl]pyrrolo[2,1-f][1,2,4]triazin-4-yl]-2-methyl-phenyl]methyl]-1,2,4-oxadiazole-3-carboxamide]
19 | < 100 | Cc1cc(-c2ncnn3cc(-c4ccc5c(c4)CCN(CCc4ccc(NC6CCC(=O)NC6=O)cc4)C5)cc23)ccc1CNC(=O)c1noc(C(C)(C)C)n1 (stereo not drawn) [Example 56, 5-tert-butyl-N-[[4-[6-[2-[2-[4-[(2,6-dioxo-3-piperidyl)amino]phenyl]ethyl]-3,4-dihydro-1H-isoquinolin-6-yl]pyrrolo[2,1-f][1,2,4]triazin-4-yl]-2-methyl-phenyl]methyl]-1,2,4-oxadiazole-3-carboxamide]
20 | < 100 | Cc1cc(-c2ncnn3cc(-c4ccc(CN5CCC(c6ccc(NC7CCC(=O)NC7=O)cc6)CC5)cc4)cc23)ccc1CNC(=O)c1ccc(F)c(F)c1 (stereo not drawn) [Example 65, N-[[4-[6-[4-[[4-[4-[(2,6-dioxo-3-piperidyl)amino]phenyl]-1-piperidyl]methyl]phenyl]pyrrolo[2,1-f][1,2,4]triazin-4-yl]-2-methyl-phenyl]methyl]-3,4-difluoro-benzamide]
21 | < 100 | COc1ccc(C(=O)NCc2ccc(-c3ncnn4cc(-c5ccc(CN6CCC(c7ccc(NC8CCC(=O)NC8=O)cc7)CC6)cc5)cc34)cc2C)cc1 (stereo not drawn) [Example 66, N-[[4-[6-[4-[[4-[4-[(2,6-dioxo-3-piperidyl)amino]phenyl]-1-piperidyl]methyl]phenyl]pyrrolo[2,1-f][1,2,4]triazin-4-yl]-2-methyl-phenyl]methyl]-4-methoxy-benzamide]
